# From patent US20240391877A1, “COMPOUND AS INHIBITOR OF COMPLEMENT FACTOR D, AND PHARMACEUTICAL COMPOSITION AND USE THEREOF” (WUHAN CREATERNA SCIENCE AND TECHNOLOGY CO.,LTD., priority 2021, published 2024)
# pIC50: −log10 of the molar value. Read-outs that look alike come from different tables or passages of the source.
# How the values were obtained:
# [1] = In vivo pharmacokinetic study (PK assay on SD rats); conditions: Sprague-Dawley, rat, plasma; for bioavailability: read-out: Oral bioavailability F
# Protocol: 3. In Vivo Pharmacokinetic Study of the Compounds of the Present Disclosure
# After adaptive domestication, SPF grade SD rats were administered 1 or 3 mg/kg the compounds of the present disclosure by single gavage and tail vein injection, respectively. Plasma was collected at specific time points after administration, and the concentration of compounds in plasma was detected by LC-MS/MS (AB SCIEX Qtrap4500). The PK parameters of each compound were calculated using software to reflect the pharmacokinetic properties of the compounds of the present disclosure in vivo in animals.
# complement factor D = target: T1, complement factor D (Homo sapiens, UniProt P00746); assay: Complement factor D inhibitory activity (C3b method) in vitro screening; product Bb detected by ELISA; format: biochemical; conditions: factor D + factor B + factor C3b, 37° C., Bb by MicroVue Bb Plus ELISA
# T1 construct: purchased Complement tech
# Text: 1. Complement Factor D Inhibitory Activity (C3b Method) In Vitro Screening Experiment
# V-bottom plate (AXYGEN), DMSO (Sigma), MicroVue Bb Plus ELISA kit (Quidel), complement factor C3b (abbreviated as factor C3b, Complement tech), complement factor B (abbreviated as factor B, Complement tech), complement factor D (abbreviated as factor D, Complement tech), EDTA (MACKLIN), GVB^o (Complement tech), EGTA (Aladdin), MgCl2 (Aladdin), NaOH (Sinopharm), microplate reader (Molecular Devices, SpectraMax i3x), microplate thermostatic shaker (Thermo, MB100-2A), pipette (Gilson)
# 0.1 M Mg-EGTA: 3.8 g of EGTA, 0.9521 g of MgCl2, and 0.7 g of NaOH were weighed, and the pH was adjusted to 7.5 with NaOH. Distilled water was added to make up to 100 mL, and the mixture was filtered with a […] sterile needle filter, stored in portions at 4° C.
# Buffer: 0.1 M Mg-EGTA solution was diluted 10-fold to 10 mM with GVB^o buffer; • factor B working solution: 1 mg/mL factor B solution (10.75 μM) was diluted 6.7-fold to 1.6 μM with buffer; • factor C3b working solution: 1 mg/mL factor C3b solution (5.68 μM) was diluted 5-fold to […] with buffer; • factor D working solution: 0.1 mg/mL factor D solution (4.17 μM) was diluted 1303-fold to 3.2 nM with buffer.
# Note: a. The above dilution multiples are for reference only and are adjusted according to the true concentration labeled on the reagent; • b. factor B: 93 KDa, factor D: 24 KDa, factor C3b: 176 KDa.
# Stop solution: An appropriate amount of EDTA powder was weighed, dissolved in a certain amount of GVB^o buffer, and the pH was adjusted to 7.5 with NaOH. The mixture was stirred until clear and prepared into a 10 mM solution.
# Compound stock solution: 40 mM compound solution was diluted with DMSO into 1 mM stock solution, and the 1 mM stock solution was diluted 3-fold with DMSO at 8 points to prepare compound stock solutions of various concentrations.
# Compound working solution: diluted 250-fold with buffer to obtain compound solutions of various concentrations.
# In the V-bottom plate, the experimental group was added with 10 μL of factor D solution and 10 μL of compound solution; the positive control group was added with 10 μL of factor D solution and buffer containing 0.4% DMSO; the blank control group was added with […] containing 0.2% DMSO; incubated at 37° C. for 15 min; the factor B working solution and the factor C3b working solution were mixed homogeneously at a ratio of 1:1; 20 µL of the mixture was added to each well and incubated at 37° C. for 30 min; the reaction was stopped by adding 40 μL of stop solution; the production of product Bb was detected by MicroVue Bb Plus ELISA kit.
# 1.4.1 The required wells of the ELISA plate were taken out and allowed to return to room temperature, and the remaining ones were repackaged and stored at 4° C.;
# 1.4.2 the wells were washed twice with 300 μL of 1× wash buffer, and incubated for 1 min at 25° C. for the first wash;
# 1.4.3 samples were diluted 8-fold with complement specimen diluent, and 100 μL of sample was added to each well and incubated at 25° C. for 30 min;
# 1.4.4 the liquid in the wells was discarded, and the wells were washed 5 times with 300 μL of 1× wash buffer, and incubated at room temperature for 1 min for the first wash;
# 1.4.5 50 μL of Bb Plus Conjugate was added to each well and incubated at 25° C. for 30 min;
# 1.4.6 the liquid in the wells was discarded, and the wells were washed 5 times with 300 μL of 1× wash buffer, and incubated at room temperature for 1 min for the first wash;
# 1.4.7 100 μL of […] (Substrate Solution) was added to each well and incubated at 25° C. for 15 min;
# 1.4.8 100 μL of stop solution was added to each well, and the absorbance was detected at 450 nm within 30 min.
# 1.5.1 Inhibition rate of each drug concentration:
# The PC group represents 0% inhibition rate, and the NC group represents 100% inhibition rate. […]
# [2] = system: hemolysis of rabbit erythrocytes; assay: Rabbit erythrocyte hemolysis assay to evaluate inhibitory activity on the bypass pathway; format: cell-based; conditions: Oryctolagus cuniculus, 0.5 h, 48% NHP or 26.4% NHS, 37° C. 30 min, absorbance 415 nm
# Text: 2. Rabbit Erythrocyte Hemolysis Assay to Evaluate the Inhibitory Activity of Compounds on the Bypass Pathway
# Normal Human Serum, NHS (collected from healthy people), Normal Human Plasma, NHP (Shanghai Yuduo), 96-well ELISA plate (Jet Biofil), Japanese big-eared white rabbit (Wuhan WQJX), Alsever's solution (Procell), centrifuge (Thermo, PICO17), thermostatic shaker (Shanghai Fuma), destaining shaker (Beijing Liuyi), cell counter (Invitrogen, Counter Countess II) (GVB^o, EGTA, MgCl2, NaOH, microplate reader, microplate thermostatic shaker, and pipette are equivalent to those in the experiment 1).
# 48% NHP: 100% NHP was diluted to 48% with buffer;
# 26.4% NPS: 100% NHS was diluted to 26.4% with buffer;
# rabbit erythrocyte suspension: blood was taken from rabbit ear marginal vein, anticoagulated with Alsever's solution at a ratio of 1:1, stored in portions at 4° C., and could be stored for 4 weeks. Before use, the suspension was centrifuged at 500 g for 5 min to discard the Alsever's solution, washed three times with an equal volume of buffer and centrifuged at 500 g for 5 min, and finally the density was adjusted to 6×10^8 cells/mL with buffer.
# In the 96-well ELISA plate, the experimental group was added with 50 μL of 48% NHP or 26.4% NHS and 50 μL of compound solution; the positive control group was added with 50 μL of 48% NHP or 26.4% NHS and 50 μL of buffer containing 0.2% DMSO; the blank control group was added with 50 μL of 48% inactivated NHP or 26.4% inactivated NHS and 0.2% DMSO buffer; the H2O group was added with 100 μL of double-distilled water; incubated at 37° C. for 15 min; 20 μL of rabbit erythrocyte suspension was added to each well and incubated on a shaker at 37° C. for 30 min; centrifuged at 2000 g (3380 rpm) for 5 min, and […] of supernatant was transferred to a new 96-well ELISA plate, and the absorbance was detected at 415 nm.
# The PC group represents 100% hemolysis, and the NC group represents 0% hemolysis.
# IC50: half-maximal inhibitory concentration. Data were collected to calculate the log value of hemolysis percentage versus compound concentration, and IC50 values were calculated using GraphPad Prism software.
# [3] = PO (3% DMSO + 4% Tween), 1 mg/kg
# [4] = PO (3% DMSO + 4% Tween), 3 mg/kg
# T1 sequence (P00746 26-253): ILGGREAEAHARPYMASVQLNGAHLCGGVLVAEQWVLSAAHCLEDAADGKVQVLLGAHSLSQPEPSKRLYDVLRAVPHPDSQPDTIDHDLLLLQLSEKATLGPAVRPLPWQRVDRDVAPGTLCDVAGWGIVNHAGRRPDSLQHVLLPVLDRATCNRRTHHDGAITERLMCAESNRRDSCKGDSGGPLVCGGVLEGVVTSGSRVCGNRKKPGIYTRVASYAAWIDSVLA
Compound,"AUC(0-t) ([1]; IV, 1 mg/kg) [ng·h/mL]","Cmax ([1]; IV, 1 mg/kg) [ng/mL]","half-life ([1]; IV, 1 mg/kg) [h]",bioavailability ([1]; PO 1 mg/kg vs IV 1 mg/kg) [%],"AUC(0-t) [1, 3] [ng·h/mL]","Cmax [1, 3] [ng/mL]","half-life [1, 3] [h]",pIC50 (complement factor D),pIC50 [2],bioavailability ([1]; PO 3 mg/kg vs IV 1 mg/kg) [%],"AUC(0-t) [1, 4] [ng·h/mL]","Cmax [1, 4] [ng/mL]","half-life [1, 4] [h]"
"NCc1cccc(-c2cc(COc3ccccc3CC(=O)O)cc(N3CCC4(CC3)CC4)c2)c1F [Compound 007, 2-(2-((3′-(aminomethyl)-2′-fluoro-5-(6-azaspiro[2.5]octan-6-yl)-[1,1′-biphenyl]-3-yl)methoxy)phenyl)acetic acid]",3290,3270,0.64,70.2,2310,936,1.46,7.92,7.23,–,–,–,–
"NCc1cccc(-c2cc(COc3ccccc3CC(=O)O)cc(N3CCC4(CC3)CC4)c2)c1 [Compound 001, 2-(2-((3′-(aminomethyl)-5-(6-azaspiro[2.5]octan-6-yl)-[1,1′-biphenyl]-3-yl)methoxy)phenyl)acetic acid]",8030,1800,3.59,40.3,3240,577,4.13,8.00,7.39,–,–,–,–
"NCc1nccc(-c2cc(COc3ccccc3CC(=O)O)cc(N3CCC4(CC3)CC4)c2)c1F [Compound 023, 2-(2-((3-(2-(aminomethyl)-3-fluoropyridin-4-yl)-5-(6-azaspiro[2.5]octan-6-yl)benzyl)oxy)phenyl)acetic acid]",7060,3410,4.58,–,–,–,–,7.82,7.12,35.3,7480,1020,4.1
